Numbers after ± are expanded uncertainties.

The data set in a line: activity coefficient (dimensionless); of the first substance listed, at infinite dilution; xn = mol fraction of the nth substance listed. Particulars: 101 kPa, Liquid, Chromatography, x1 = 0.

Consider `COCCOC` [1,2-dimethoxyethane] + CCn1cc[n+](C)c1.N#C[B-](C#N)(C#N)C#N, for which the activity coefficient stood at 0.452 ± 0.03 (318.15 K); 0.47 ± 0.03 (323.15 K); 0.505 ± 0.031 (333.15 K); 0.539 ± 0.031 (343.15 K); 0.574 ± 0.032 (353.15 K).

Take `Cc1cccc(C)c1` [1,3-dimethylbenzene] + CCn1cc[n+](C)c1.N#C[B-](C#N)(C#N)C#N: the activity coefficient reads like this: (318.15 K) 2.62 ± 0.13; (323.15 K) 2.62 ± 0.13; (333.15 K) 2.63 ± 0.13; (343.15 K) 2.63 ± 0.13; (353.15 K) 2.64 ± 0.14.

As for `FC(F)(F)C(Cl)Br` (stereo not given) [1-bromo-1-chloro-2,2,2-trifluoroethane] + CCn1cc[n+](C)c1.N#C[B-](C#N)(C#N)C#N, the activity coefficient amounted to 1.16 ± 0.05 (318.15 K); 1.19 ± 0.05 (323.15 K); 1.28 ± 0.06 (333.15 K); 1.34 ± 0.06 (343.15 K); 1.41 ± 0.07 (353.15 K).

`COC(C)(C)C` [2-methoxy-2-methylpropane] + CCn1cc[n+](C)c1.N#C[B-](C#N)(C#N)C#N: the activity coefficient is, setting by setting: (318.15 K) 2.77 ± 0.14; (323.15 K) 2.8 ± 0.14; (333.15 K) 2.85 ± 0.15; (343.15 K) 2.9 ± 0.15; (353.15 K) 2.95 ± 0.15.

On to `CC(C)=O` [acetone] + CCn1cc[n+](C)c1.N#C[B-](C#N)(C#N)C#N, for which the activity coefficient reads like this: (318.15 K) 0.437 ± 0.029; (323.15 K) 0.443 ± 0.03; (333.15 K) 0.454 ± 0.03; (343.15 K) 0.466 ± 0.03; (353.15 K) 0.479 ± 0.03.

In the case of `CC#N` [acetonitrile] + CCn1cc[n+](C)c1.N#C[B-](C#N)(C#N)C#N, the activity coefficient (318.15 K) amounted to 0.428 ± 0.029; the activity coefficient (323.15 K) turned out to be 0.43 ± 0.029; the activity coefficient (333.15 K) turned out to be 0.43 ± 0.029; the activity coefficient (343.15 K) worked out at 0.431 ± 0.029; the activity coefficient (353.15 K) was found to be 0.432 ± 0.029.

As to `c1ccccc1` [benzene] + CCn1cc[n+](C)c1.N#C[B-](C#N)(C#N)C#N, the activity coefficient (318.15 K) is 1.15 ± 0.05; the activity coefficient (323.15 K) is 1.15 ± 0.05; the activity coefficient (333.15 K) was 1.17 ± 0.05; the activity coefficient (343.15 K) is 1.18 ± 0.05; the activity coefficient (353.15 K) was determined as 1.19 ± 0.05.

Regarding `CCC(C)=O` [butanone] + CCn1cc[n+](C)c1.N#C[B-](C#N)(C#N)C#N, the activity coefficient came out at 0.577 ± 0.032 (318.15 K); 0.584 ± 0.032 (323.15 K); 0.605 ± 0.033 (333.15 K); 0.611 ± 0.033 (343.15 K); 0.626 ± 0.033 (353.15 K).

In the case of `C1CCCCC1` [cyclohexane] + CCn1cc[n+](C)c1.N#C[B-](C#N)(C#N)C#N, the activity coefficient worked out at 13.8 ± 0.7 (318.15 K); 13.4 ± 0.7 (323.15 K); 12.5 ± 0.6 (333.15 K); 11.8 ± 0.6 (343.15 K); 11.1 ± 0.6 (353.15 K).

Regarding `ClCCl` [dichloromethane] + CCn1cc[n+](C)c1.N#C[B-](C#N)(C#N)C#N, the activity coefficient by setting is: (318.15 K) 0.656 ± 0.034; (323.15 K) 0.665 ± 0.034; (333.15 K) 0.682 ± 0.034; (343.15 K) 0.698 ± 0.035; (353.15 K) 0.714 ± 0.035.

With `CC(C)OC(C)C` [diisopropyl ether] + CCn1cc[n+](C)c1.N#C[B-](C#N)(C#N)C#N, the activity coefficient worked out at 7.07 ± 0.36 (318.15 K); 7.08 ± 0.36 (323.15 K); 7.1 ± 0.37 (333.15 K); 7.11 ± 0.37 (343.15 K); 7.13 ± 0.37 (353.15 K).

Consider `COC(=O)OC` [dimethyl carbonate] + CCn1cc[n+](C)c1.N#C[B-](C#N)(C#N)C#N, for which the activity coefficient by setting is: (318.15 K) 0.528 ± 0.031; (323.15 K) 0.535 ± 0.031; (333.15 K) 0.549 ± 0.031; (343.15 K) 0.563 ± 0.032; (353.15 K) 0.576 ± 0.032.

Consider `CCO` [ethanol] + CCn1cc[n+](C)c1.N#C[B-](C#N)(C#N)C#N, for which the activity coefficient runs as follows: (318.15 K) 1.3 ± 0.06; (323.15 K) 1.25 ± 0.06; (333.15 K) 1.15 ± 0.05; (343.15 K) 1.07 ± 0.05; (353.15 K) 1 ± 0.04.

With `CCOC(C)=O` [ethyl acetate] + CCn1cc[n+](C)c1.N#C[B-](C#N)(C#N)C#N, the activity coefficient (318.15 K) was 0.989 ± 0.043; the activity coefficient (323.15 K) amounted to 1 ± 0.04; the activity coefficient (333.15 K) is 1.02 ± 0.05; the activity coefficient (343.15 K) was 1.04 ± 0.05; the activity coefficient (353.15 K) was found to be 1.06 ± 0.05.

On to `CCc1ccccc1` [ethylbenzene] + CCn1cc[n+](C)c1.N#C[B-](C#N)(C#N)C#N, for which the activity coefficient was 2.62 ± 0.13 (318.15 K); 2.61 ± 0.13 (323.15 K); 2.61 ± 0.13 (333.15 K); 2.61 ± 0.13 (343.15 K); 2.61 ± 0.13 (353.15 K).

For the molecule `CCC1CCCCC1` [ethylcyclohexane] + CCn1cc[n+](C)c1.N#C[B-](C#N)(C#N)C#N, the activity coefficient is 318 ± 17 (318.15 K); 323 ± 17 (323.15 K); 333 ± 17 (333.15 K); 343 ± 18 (343.15 K); 353 ± 18 (353.15 K).

Consider `CCCCCCC` [heptane] + CCn1cc[n+](C)c1.N#C[B-](C#N)(C#N)C#N, for which the activity coefficient (318.15 K) stood at 42.4 ± 2.2; the activity coefficient (323.15 K) amounted to 40.7 ± 2.1; the activity coefficient (333.15 K) worked out at 37.5 ± 1.9; the activity coefficient (343.15 K) came out at 34.8 ± 1.8; the activity coefficient (353.15 K) is 32.3 ± 1.7.

As to `CO` [methanol] + CCn1cc[n+](C)c1.N#C[B-](C#N)(C#N)C#N, the activity coefficient reads like this: (318.15 K) 0.917 ± 0.041; (323.15 K) 0.89 ± 0.04; (333.15 K) 0.84 ± 0.039; (343.15 K) 0.795 ± 0.038; (353.15 K) 0.755 ± 0.036.

With `COC(C)=O` [methyl ethanoate] + CCn1cc[n+](C)c1.N#C[B-](C#N)(C#N)C#N, the activity coefficient turned out to be 0.653 ± 0.034 (318.15 K); 0.662 ± 0.034 (323.15 K); 0.682 ± 0.034 (333.15 K); 0.7 ± 0.035 (343.15 K); 0.723 ± 0.036 (353.15 K).

In the case of `CC1CCCCC1` [methylcyclohexane] + CCn1cc[n+](C)c1.N#C[B-](C#N)(C#N)C#N, the activity coefficient was determined as 20.4 ± 1.1 (318.15 K); 19.7 ± 1 (323.15 K); 18.4 ± 1 (333.15 K); 17.2 ± 0.9 (343.15 K); 16.3 ± 0.8 (353.15 K).

With `C[N+](=O)[O-]` [nitromethane] + CCn1cc[n+](C)c1.N#C[B-](C#N)(C#N)C#N, the activity coefficient was 0.419 ± 0.029 (318.15 K); 0.421 ± 0.029 (323.15 K); 0.423 ± 0.029 (333.15 K); 0.426 ± 0.029 (343.15 K); 0.429 ± 0.029 (353.15 K).

For `C=CCCCCCC` [oct-1-ene] + CCn1cc[n+](C)c1.N#C[B-](C#N)(C#N)C#N, the activity coefficient (318.15 K) came out at 28.8 ± 1.5; the activity coefficient (323.15 K) amounted to 27.8 ± 1.4; the activity coefficient (333.15 K) came to 26.1 ± 1.4; the activity coefficient (343.15 K) was 24.6 ± 1.3; the activity coefficient (353.15 K) was found to be 23.3 ± 1.2.

Take `CCCCCCCC` [octane] + CCn1cc[n+](C)c1.N#C[B-](C#N)(C#N)C#N: the activity coefficient runs as follows: (318.15 K) 64.2 ± 3.3; (323.15 K) 61.2 ± 3.2; (333.15 K) 55.8 ± 2.9; (343.15 K) 51 ± 2.7; (353.15 K) 47 ± 2.4.

For the molecule `CCCO` [propan-1-ol] + CCn1cc[n+](C)c1.N#C[B-](C#N)(C#N)C#N, the activity coefficient worked out at 1.62 ± 0.08 (318.15 K); 1.55 ± 0.08 (323.15 K); 1.42 ± 0.07 (333.15 K); 1.31 ± 0.06 (343.15 K); 1.22 ± 0.06 (353.15 K).

In the case of `CC(C)O` [propan-2-ol] + CCn1cc[n+](C)c1.N#C[B-](C#N)(C#N)C#N, the activity coefficient is, setting by setting: (318.15 K) 1.63 ± 0.08; (323.15 K) 1.56 ± 0.08; (333.15 K) 1.43 ± 0.07; (343.15 K) 1.32 ± 0.06; (353.15 K) 1.23 ± 0.06.

Take `ClC(Cl)(Cl)Cl` [tetrachloromethane] + CCn1cc[n+](C)c1.N#C[B-](C#N)(C#N)C#N: the activity coefficient is, setting by setting: (318.15 K) 3.56 ± 0.18; (323.15 K) 3.56 ± 0.18; (333.15 K) 3.55 ± 0.18; (343.15 K) 3.54 ± 0.18; (353.15 K) 3.53 ± 0.18.

For the molecule `C1CCOC1` [tetrahydrofuran] + CCn1cc[n+](C)c1.N#C[B-](C#N)(C#N)C#N, the activity coefficient runs as follows: (318.15 K) 0.699 ± 0.035; (323.15 K) 0.709 ± 0.035; (333.15 K) 0.727 ± 0.036; (343.15 K) 0.744 ± 0.036; (353.15 K) 0.761 ± 0.037.

In the case of `c1ccsc1` [thiophene] + CCn1cc[n+](C)c1.N#C[B-](C#N)(C#N)C#N, the activity coefficient runs as follows: (318.15 K) 0.942 ± 0.042; (323.15 K) 0.947 ± 0.042; (333.15 K) 0.957 ± 0.042; (343.15 K) 0.967 ± 0.043; (353.15 K) 0.978 ± 0.043.

In the case of `Cc1ccccc1` [toluene] + CCn1cc[n+](C)c1.N#C[B-](C#N)(C#N)C#N, the activity coefficient reads like this: (318.15 K) 1.68 ± 0.08; (323.15 K) 1.69 ± 0.08; (333.15 K) 1.71 ± 0.09; (343.15 K) 1.72 ± 0.09; (353.15 K) 1.74 ± 0.09.

As to `ClC(Cl)Cl` [trichloromethane] + CCn1cc[n+](C)c1.N#C[B-](C#N)(C#N)C#N, the activity coefficient (318.15 K) is 0.812 ± 0.038; the activity coefficient (323.15 K) worked out at 0.829 ± 0.038; the activity coefficient (333.15 K) is 0.863 ± 0.039; the activity coefficient (343.15 K) amounted to 0.895 ± 0.04; the activity coefficient (353.15 K) is 0.926 ± 0.041.

These data come from the NIST ThermoML archive (doi:10.1016/j.jct.2011.09.028).
